Source: patent US20210267929A1, “COMPOSITIONS AND METHODS FOR TREATMENT OF ORAL ULCERATION AND ORAL MUCOSITIS” (CelaCare Technologies, Inc., priority 2018, published 2021)
Values after ≈ are worked out from the molar mass of the structure shown.

Assays:
[1] = tested on: Staphylococcus aureus ATCC 29213; test: Microtube dilution MIC (CLSI M07), oral rinses vs vancomycin; type: cell-based; settings: ATCC29213, read-out: MIC (mg/L) Mean
From the text: The purpose of this experiment was to determine the potency of one embodiment of the oral rinse on three common gram-positive cocci species tested: Staphylococcus aureus, Streptococcus pneumoniae, Streptococcus pyogenes by determining the minimal inhibitory concentrations (MIC) of the oral rinse on each species. The oral rinse was compared to vancomycin, a common antibiotic used to treat various infections.
The embodiment of the oral rinses (170915 and 171003) tested in this experiment included 10 ug/mL silver citrate complex, 4 mg/mL acemannan, 5 mg/mL Disodium EDTA, 0.1 mg/mL Hyaluronic acid, 2 mg/mL PVP, […] of masking and cherry flavor, purified water, and pH adjustment with tris(hydroxymethyl)aminomethane to a pH of 6.36 and pH of 6.40, respectively. The vancomycin control (Sigma-Aldrich, Cat: PHR1160-1G, Lot LRAA9717, 5120 ppm) was reconstituted 20.5 mg/4 mL RO water.
The antimicrobial activity of this embodiment of the oral rinse solution was tested using the microtube dilution method for determining minimal inhibitory concentrations (MIC) described in the Clinical and Laboratory Standards (CLSI) Methods for Dilution Antimicrobial Susceptibility Tests for Bacteria that Grow Aerobically, M07, 11th ed, Approved January 2018. […]

[2] = tested on: Staphylococcus aureus ATCC 29213; settings: expected control range; cited from earlier work
[3] = tested on: Streptococcus pneumoniae ATCC 49619; settings: expected control range; cited from earlier work
[4] = tested on: Candida parapsilosis ATCC 22019; settings: expected control range; cited from earlier work
[5] = tested on: Issatchenkia orientalis ATCC 5258 (formerly known as Candida krusei); settings: expected control range; cited from earlier work
[6] = tested on: Candida glabrata ATCC 15126; test: Broth microdilution MIC (EUCAST), oral rinse vs marketed antifungals; type: cell-based; settings: 35° C., 48 hours, at least 50% OD530 inhibition; for MIC: Nakaseomyces glabratus, ATCC15126, RPMI + 2% glucose, read-out: MIC (mg/L) Mean
From the text: (§1) The purpose of this experiment was to determine the potency of one embodiment of the oral rinse on different Candida species, namely Candida albicansATCC 10231 and ATCC 24433, Candida glabrataATCC 15126, Candida krusei (Issechenkia orientalis)ATCC 6258, Candida parapsilosisATCC 22019, and Candida tropicalisATCC 1369, to determine the minimum inhibitory concentration (MIC) of the oral rinse on each species. The oral rinse was compared to current antifungal treatments on the market.
(§2) The embodiment of the oral rinse 150528 tested in this experiment included 10 μg/mL silver citrate complex, 3 mg/mL acemannan, 5 mg/mL Disodium EDTA, 0.1 mg/mL Hyaluronic acid, 2 mg/mL PVP, 3.5 mg/ml of masking and cherry flavor, purified water, pH adjustment with tris(hydroxymethyl)aminomethane to a pH of 6.59. The current antifungal treatments that were tested and compared were Fluconazole (Sigma-Aldrich, Cat: PHR1160-1G, Lot LRAA6502) a Nystatin suspension (Sigma-Aldrich, Cat: N6261-SMU, Lot 020M13491V), and Gentian Violet (1% Humco, Cat: NDC 0395-1003-92, Lot547845).
(§3) The antimicrobial activity of the oral rinse solution as described above, Example 1, was tested using the micro-tube dilution method described in the Method for Determination of Broth Dilution MICs of Antifungal agents for fermentative yeasts, published by the European Committee for Antimicrobial Susceptibility Testing (EUCAST). In brief, a standard inoculum of each microorganism was prepared by diluting a 0.5 MacFarland turbidity standard of the microorganism 1:100 in RPMI media without sodium bicarbonate plus 2% glucose. Then, 100 μL of the standard inoculum was added to equal volumes of two-fold serial dilutions of the oral rinse solution or controls, and the plates were incubated at 35° C. for 48 hours. MICs were determined photometrically as the lowest antimicrobial agent concentration (last well in the dilution series) that inhibited OD530 absorbance at least 50%. Each experiment was performed three times, with each antimicrobial agent tested in duplicate or triplicate.

[7] = tested on: Candida parapsilosis ATCC 22019; test: as above; type: cell-based; settings: 35° C., 48 hours, at least 50% OD530 inhibition; for MIC: Lodderomyces parapsilosis, ATCC22019, RPMI + 2% glucose, read-out: MIC (mg/L) Mean
From the text: as §1, §2, §3

[8] = tested on: Candida albicans ATCC 24433; test: as above; type: cell-based; settings: 35° C., 48 hours, at least 50% OD530 inhibition; for MIC: ATCC24433, RPMI + 2% glucose, read-out: MIC (mg/L) Mean
From the text: as §1, §2, §3

[9] = tested on: Candida tropicalis ATCC 1369; test: as above; type: cell-based; settings: 35° C., 48 hours, at least 50% OD530 inhibition; for MIC: ATCC1369, RPMI + 2% glucose, read-out: MIC (mg/L) Mean
From the text: as §1, §2, §3

[10] = tested on: Issatchenkia orientalis ATCC 6258 (formerly known as Candida krusei); test: as above; type: cell-based; settings: 35° C., 48 hours, at least 50% OD530 inhibition; for MIC: Pichia kudriavzevii, ATCC6258, RPMI + 2% glucose, read-out: MIC (mg/L) Mean
From the text: as §1, §2, §3

[11] = tested on: Candida albicans ATCC 10231; test: as above; type: cell-based; settings: 35° C., 48 hours, at least 50% OD530 inhibition; for MIC: ATCC10231, RPMI + 2% glucose, read-out: MIC (mg/L) Mean
From the text: as §1, §2, §3

[12] = tested on: Issatchenkia orientalis ATCC 5258 (formerly known as Candida krusei); test: Broth microdilution MIC (CLSI M27), oral rinses, silver API and controls; type: cell-based; settings: 35° C., 24 hours, at least 50% OD530 inhibition; for MIC: Pichia kudriavzevii, ATCC5258, CLSI M27, RPMI, read-out: MIC (mg/L) Mean
Experimental: (§4) This experiment tested two examples of the oral rinse in the treatment of three different Candida organisms associated with oral mucositis. The embodiments of the Oral Rinses tested in this experiment were: • Oral Rinse 170915-10 μg/mL silver citrate complex, 4 mg/mL acemannan, 5 mg/mL Disodium EDTA, 0.1 mg/mL Hyaluronic acid, 2 mg/mL PVP, 5.75 mg/ml of masking and cherry flavor, purified water, pH adjustment with tris(hydroxymethyl)aminomethane to a pH of 6.36. • Oral Rinse 170719-8 μg/mL silver citrate complex, 3.9 mg/mL acemannan, 5 mg/mL Disodium EDTA, 0.1 mg/mL Hyaluronic acid, 2 mg/mL PVP, 5.75 mg/ml of masking agent and cherry flavor, purified water, pH adjustment with tris(hydroxymethyl)aminomethane to a pH of 6.38.
(§5) The antimicrobial activity of two oral rinse solutions as described above, Example 2, was tested using the microtube dilution method described in the Clinical and Laboratory Standards Institute (CLSI) Reference Method for Broth Dilution Antifungal Susceptibility Testing of Yeasts, M27-4. In brief, a standard inoculum of each microorganism was prepared by diluting a 0.5 MacFarland turbidity standard of the microorganism 1:100 in RPMI media without sodium bicarbonate. Then, 100 μL of the standard inoculum was added to equal volumes of two-fold serial dilutions of the silver API (active pharmaceutical ingredient, silver citrate complex), controls, or the oral rinse solution, and the plates were incubated at 35° C. for 24 hours. MICs were determined photometrically as the lowest antimicrobial agent concentration (last well in the dilution series) that inhibited OD530 absorbance at least 50%. Each experiment was performed three times, with each antimicrobial agent tested in duplicate or triplicate.

[13] = tested on: Candida parapsilosis ATCC 22019; test: as above; type: cell-based; settings: 35° C., 24 hours, at least 50% OD530 inhibition; for MIC: Lodderomyces parapsilosis, ATCC22019, CLSI M27, RPMI, read-out: MIC (mg/L) Mean
Experimental: as §4, §5

[14] = tested on: Candida albicans ATCC 24433; test: as above; type: cell-based; settings: 35° C., 24 hours, at least 50% OD530 inhibition; for MIC: ATCC24433, CLSI M27, RPMI, read-out: MIC (mg/L) Mean
Experimental: as §4, §5

[15] = according to the EPA; cited from earlier work
[16] = total body contents from past cases; cited from earlier work
[17] = estimated from animal studies in mice, rats, dogs, and monkeys; cited from earlier work
[18] = type: cell-based
Experimental: The product has been evaluated for cytotoxicity and deemed to be non-cytotoxic using a standard protocol at a GLP laboratory. […] A safety study for acemannan in humans was conducted to evaluate its effect in the treatment of oral aphthous ulcers. The initial study of 50 healthy patients received 0.5% acemannan incorporated into a Carbopol thickener applied to the oral mucosa of the lower lip three times a day for 7 days. Oral exams and kidney and liver function were evaluated prior to and at the end of the study. […] Since the present compositions are utilized as an oral rinse, acemannan is not expected to be absorbed systemically through the mucosa and will merely coat the patients' mouths. Acemannan has also previously been cleared to market in oral device products. Based on current safety data on the ingredients incorporated into the compositions and the 14-day duration of use for patients in the study, the compositions will not provide significant patient risks when dosed as intended.

healthy patients = settings: in vivo; cited from earlier work

## CN[C@H](CC(C)C)C(=O)N[C@H]1C(=O)N[C@@H](CC(N)=O)C(=O)N[C@H]2C(=O)N[C@H]3C(=O)N[C@H](C(=O)N[C@H](C(=O)O)c4cc(O)cc(O)c4-c4cc3ccc4O)[C@H](O)c3ccc(c(Cl)c3)Oc3cc2cc(c3O[C@@H]2O[C@H](CO)[C@@H](O)[C@H](O)[C@H]2O[C@H]2C[C@](C)(N)[C@H](O)[C@H](C)O2)Oc2ccc(cc2Cl)[C@H]1O [Vancomycin]
[1]
  MIC: 0.7 mg/L (≈ 0.483 µM)
[2]
  MIC Control Range: Vancomycin (Control 0.5-2.0) mg/L
[3]
  MIC Control Range: Vancomycin (Control 0.06-0.5) mg/L

## OC(Cn1cncn1)(Cn1cncn1)c1ccc(F)cc1F [Fluconazole]
[4]
  MIC Control Range: 0.5 to 4.0 µg/mL
[5]
  MIC Control Range: 8 to 64 µg/mL
[6]
  MIC: 7.3 mg/L
[7]
  MIC: 1.2 mg/L
[8]
  MIC: 0.5 mg/L
[9]
  MIC: 0.5 mg/L
[10]
  MIC: 24 mg/L
[11]
  MIC: 1.2 mg/L
[12]
  MIC: 14.7 mg/L (≈ 47.9 µM)
[13]
  MIC: 1.67 mg/L (≈ 5.44 µM)
[14]
  MIC: 0.583 mg/L (≈ 1.9 µM)

## C[C@@H]1[C@H](O)[C@@H](C)/C=C/C=C/CC/C=C/C=C/C=C/C=C/C(O[C@H]2O[C@H](C)[C@@H](O)[C@H](N)[C@@H]2O)CC2O[C@](O)(CC(O)C(O)CCC(O)CC(O)CC(O)CC(=O)O[C@H]1C)CC(O)C2C(=O)O (stereo partly shown) [Nystatin]
[6]; RPMI + 2% glucose
  MIC (mg/L) Mean: 2.7 mg/L
[7]; RPMI + 2% glucose
  MIC (mg/L) Mean: 2.7 mg/L
[8]; RPMI + 2% glucose
  MIC (mg/L) Mean: 4.8 mg/L
[9]; RPMI + 2% glucose
  MIC (mg/L) Mean: 2.2 mg/L
[10]; RPMI + 2% glucose
  MIC (mg/L) Mean: 5.4 mg/L
[11]; RPMI + 2% glucose
  MIC (mg/L) Mean: 3.9 mg/L

## Nc1[nH]c(=O)ncc1F [Flucytosine]
[4]
  MIC Control Range: 0.06 to 0.25 µg/mL
[5]
  MIC Control Range: 4 to 16 µg/mL
[12]
  MIC: 3.67 mg/L (≈ 28.4 µM)
[13]
  MIC: 0.063 mg/L (≈ 0.488 µM)
[14]
  MIC: 0.25 mg/L (≈ 1.94 µM)

## [Ag] [silver]
[15]
  safe lifetime continuous exposure: 5 micrograms/kg/day
[16]
  total amount of silver required to cause argyria: 3.8 to 6.4 g
[17]
  human elimination of silver from oral ingestion: 90%

## acemannan
[18]
  cytotoxicity: non-cytotoxic
Healthy patients
  adverse effects or allergic reactions: No patients reported adverse effects or allergic reactions
  pre- versus post-test blood values (kidney and liver function): no statistical difference

## Silver citrate complex
[12]; CLSI M27, RPMI
  MIC (mg/L) Mean: 0.117 mg/L
[13]; CLSI M27, RPMI
  MIC (mg/L) Mean: 0.088 mg/L
[14]; CLSI M27, RPMI
  MIC (mg/L) Mean: 0.234 mg/L

## CN(C)c1ccc(C(=C2C=CC(=[N+](C)C)C=C2)c2ccc(N(C)C)cc2)cc1 [Gentian Violet]
[6]
  MIC: 1.02 mg/L
[7]
  MIC: 0.2 mg/L
[8]
  MIC: 0.3 mg/L
[9]
  MIC: 0.3 mg/L
[10]
  MIC: 0.3 mg/L
[11]
  MIC: 0.3 mg/L
